Assays:
Set-up in all cases: scale not given: the % may be the effect or the level left
[1] = target: T1, Serine/threonine-protein kinase 17A (Homo sapiens) (UniProt Q9UEE5); test: Inhibition of human DRAK1/STK17A assessed as enzyme activity at 1 uM using KKLNRTLSFAEPG as substrate preincubated for 20 mins followed by [gamma-33P]-ATP addition and measured after 120 mins by radiometric Hot-SpotSM Kinase assay relative to control
T1 sequence (whole entry): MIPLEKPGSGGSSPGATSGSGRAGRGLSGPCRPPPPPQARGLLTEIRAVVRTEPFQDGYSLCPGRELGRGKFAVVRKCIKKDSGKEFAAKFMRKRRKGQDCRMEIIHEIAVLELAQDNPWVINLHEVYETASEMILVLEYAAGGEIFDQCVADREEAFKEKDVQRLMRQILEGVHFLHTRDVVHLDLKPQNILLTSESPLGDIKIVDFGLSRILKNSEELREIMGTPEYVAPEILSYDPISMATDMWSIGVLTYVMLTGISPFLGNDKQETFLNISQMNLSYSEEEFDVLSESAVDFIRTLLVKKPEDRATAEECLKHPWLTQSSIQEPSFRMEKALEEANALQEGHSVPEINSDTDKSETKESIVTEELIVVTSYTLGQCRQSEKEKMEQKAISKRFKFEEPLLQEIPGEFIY

[2] = target: Mitogen-activated protein kinase kinase kinase kinase 5 (Homo sapiens) (UniProt Q9Y4K4); test: Inhibition of human KHS assessed as enzyme activity at 1 uM using myelin basic protein as substrate preincubated for 20 mins followed by [gamma-33P]-ATP addition and measured after 120 mins by radiometric Hot-SpotSM Kinase assay relative to control
Mitogen-activated protein kinase kinase kinase kinase 5 (Homo sapiens), sequence (Q9Y4K4 whole entry, looked up): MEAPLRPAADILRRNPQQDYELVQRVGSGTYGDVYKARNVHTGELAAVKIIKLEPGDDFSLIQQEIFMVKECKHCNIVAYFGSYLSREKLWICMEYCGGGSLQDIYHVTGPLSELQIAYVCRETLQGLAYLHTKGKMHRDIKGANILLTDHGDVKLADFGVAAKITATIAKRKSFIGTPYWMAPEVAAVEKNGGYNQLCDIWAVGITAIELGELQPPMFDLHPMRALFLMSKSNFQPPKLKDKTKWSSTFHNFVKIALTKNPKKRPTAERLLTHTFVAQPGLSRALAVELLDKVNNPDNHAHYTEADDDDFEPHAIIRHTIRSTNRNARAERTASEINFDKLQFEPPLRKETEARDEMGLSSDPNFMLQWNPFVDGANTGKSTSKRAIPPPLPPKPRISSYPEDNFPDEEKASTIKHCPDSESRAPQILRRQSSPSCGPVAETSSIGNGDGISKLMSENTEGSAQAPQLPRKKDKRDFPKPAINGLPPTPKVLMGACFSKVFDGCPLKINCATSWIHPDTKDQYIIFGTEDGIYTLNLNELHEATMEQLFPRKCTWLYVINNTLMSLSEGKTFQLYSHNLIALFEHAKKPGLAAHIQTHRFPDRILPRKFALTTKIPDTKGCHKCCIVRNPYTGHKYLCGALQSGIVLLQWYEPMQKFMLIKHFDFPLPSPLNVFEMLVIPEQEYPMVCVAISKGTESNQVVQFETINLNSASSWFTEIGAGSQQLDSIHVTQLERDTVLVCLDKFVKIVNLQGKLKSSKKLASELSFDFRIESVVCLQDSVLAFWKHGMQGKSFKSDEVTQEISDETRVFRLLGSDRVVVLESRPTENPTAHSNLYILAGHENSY

[3] = target: Calcium/calmodulin-dependent protein kinase type 1D (Homo sapiens) (UniProt Q8IU85); test: Inhibition of human CAMK1d assessed as enzyme activity at 1 uM using KKALRRQETVDAL as substrate preincubated for 20 mins followed by [gamma-33P]-ATP addition and measured after 120 mins by radiometric Hot-SpotSM Kinase assay relative to control
Calcium/calmodulin-dependent protein kinase type 1D (Homo sapiens), sequence (Q8IU85 whole entry, looked up): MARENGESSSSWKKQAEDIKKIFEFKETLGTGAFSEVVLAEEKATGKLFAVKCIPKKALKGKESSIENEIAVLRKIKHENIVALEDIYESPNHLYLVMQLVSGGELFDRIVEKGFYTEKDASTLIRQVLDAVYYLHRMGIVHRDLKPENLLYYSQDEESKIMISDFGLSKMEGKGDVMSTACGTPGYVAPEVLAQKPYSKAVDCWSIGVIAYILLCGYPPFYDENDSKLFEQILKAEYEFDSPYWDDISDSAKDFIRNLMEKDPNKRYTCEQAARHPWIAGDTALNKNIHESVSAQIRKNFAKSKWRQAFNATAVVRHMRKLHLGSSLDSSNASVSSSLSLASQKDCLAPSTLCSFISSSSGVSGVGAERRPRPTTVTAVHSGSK

[4] = target: Calcium/calmodulin-dependent protein kinase type II subunit alpha (Homo sapiens) (UniProt Q9UQM7); test: Inhibition of human CAMK2a assessed as enzyme activity at 1 uM using KKALRRQETVDAL as substrate preincubated for 20 mins followed by [gamma-33P]-ATP addition and measured after 120 mins by radiometric Hot-SpotSM Kinase assay relative to control
Calcium/calmodulin-dependent protein kinase type II subunit alpha (Homo sapiens), sequence (Q9UQM7 whole entry): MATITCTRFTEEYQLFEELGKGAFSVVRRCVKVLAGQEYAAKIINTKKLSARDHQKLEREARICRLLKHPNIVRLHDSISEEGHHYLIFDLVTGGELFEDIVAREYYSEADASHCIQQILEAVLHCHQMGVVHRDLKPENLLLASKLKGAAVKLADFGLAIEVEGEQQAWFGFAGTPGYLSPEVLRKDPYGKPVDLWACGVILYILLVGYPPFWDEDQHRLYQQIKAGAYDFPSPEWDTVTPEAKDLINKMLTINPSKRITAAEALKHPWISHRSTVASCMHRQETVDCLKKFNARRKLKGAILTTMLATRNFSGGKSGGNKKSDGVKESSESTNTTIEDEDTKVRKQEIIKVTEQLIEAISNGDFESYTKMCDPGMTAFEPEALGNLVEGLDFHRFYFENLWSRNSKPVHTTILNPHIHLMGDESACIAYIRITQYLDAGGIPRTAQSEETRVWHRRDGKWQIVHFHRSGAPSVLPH

[5] = target: T2, Activin receptor type-1 (Homo sapiens) (UniProt Q04771); test: Inhibition of human ALK2 assessed as enzyme activity at 1 uM using casein as substrate preincubated for 20 mins followed by [gamma-33P]-ATP addition and measured after 120 mins by radiometric Hot-SpotSM Kinase assay relative to control
T2 sequence (whole entry): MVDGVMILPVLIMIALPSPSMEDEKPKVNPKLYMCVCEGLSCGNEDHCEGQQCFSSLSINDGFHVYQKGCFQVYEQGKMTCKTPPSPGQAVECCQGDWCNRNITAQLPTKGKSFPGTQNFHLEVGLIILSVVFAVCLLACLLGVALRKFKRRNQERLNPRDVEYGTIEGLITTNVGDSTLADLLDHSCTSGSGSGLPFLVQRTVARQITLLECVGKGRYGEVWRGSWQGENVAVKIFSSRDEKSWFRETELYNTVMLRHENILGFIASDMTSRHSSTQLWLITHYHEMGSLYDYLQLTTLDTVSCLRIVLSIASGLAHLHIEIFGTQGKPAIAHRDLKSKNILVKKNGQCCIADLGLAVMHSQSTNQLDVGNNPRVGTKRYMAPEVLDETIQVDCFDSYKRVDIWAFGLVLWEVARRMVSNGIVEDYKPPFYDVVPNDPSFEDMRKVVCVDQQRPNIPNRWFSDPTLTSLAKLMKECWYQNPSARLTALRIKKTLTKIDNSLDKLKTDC

[6] = target: T3, Serine/threonine-protein kinase Nek8 (Homo sapiens) (UniProt Q86SG6); test: Inhibition of human NEK8 assessed as enzyme activity at 1 uM using myelin basic protein as substrate preincubated for 20 mins followed by [gamma-33P]-ATP addition and measured after 120 mins by radiometric Hot-SpotSM Kinase assay relative to control
T3 sequence (whole entry): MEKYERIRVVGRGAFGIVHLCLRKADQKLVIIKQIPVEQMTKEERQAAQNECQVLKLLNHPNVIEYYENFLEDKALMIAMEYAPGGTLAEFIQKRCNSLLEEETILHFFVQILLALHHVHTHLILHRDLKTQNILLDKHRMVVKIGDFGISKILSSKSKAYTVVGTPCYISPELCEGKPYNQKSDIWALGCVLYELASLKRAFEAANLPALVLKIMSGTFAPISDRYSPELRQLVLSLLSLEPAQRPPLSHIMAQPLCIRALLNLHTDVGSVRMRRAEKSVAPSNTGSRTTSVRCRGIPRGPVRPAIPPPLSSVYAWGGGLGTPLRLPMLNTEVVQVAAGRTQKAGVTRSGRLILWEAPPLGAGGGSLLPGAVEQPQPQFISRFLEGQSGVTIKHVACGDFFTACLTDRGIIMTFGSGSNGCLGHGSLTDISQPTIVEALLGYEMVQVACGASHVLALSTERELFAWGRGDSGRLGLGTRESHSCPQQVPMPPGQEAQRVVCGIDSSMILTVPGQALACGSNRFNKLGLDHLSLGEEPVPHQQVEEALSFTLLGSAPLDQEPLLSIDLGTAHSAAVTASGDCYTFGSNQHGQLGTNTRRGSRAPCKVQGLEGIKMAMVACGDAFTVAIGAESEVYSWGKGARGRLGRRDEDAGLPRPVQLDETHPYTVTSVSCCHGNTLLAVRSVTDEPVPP

[7] = target: T4, Aurora kinase C (Homo sapiens) (UniProt Q9UQB9); test: Inhibition of human Aurora C assessed as enzyme activity at 1 uM using H-LRRASLG as substrate preincubated for 20 mins followed by [gamma-33P]-ATP addition and measured after 120 mins by radiometric Hot-SpotSM Kinase assay relative to control
T4 sequence (whole entry): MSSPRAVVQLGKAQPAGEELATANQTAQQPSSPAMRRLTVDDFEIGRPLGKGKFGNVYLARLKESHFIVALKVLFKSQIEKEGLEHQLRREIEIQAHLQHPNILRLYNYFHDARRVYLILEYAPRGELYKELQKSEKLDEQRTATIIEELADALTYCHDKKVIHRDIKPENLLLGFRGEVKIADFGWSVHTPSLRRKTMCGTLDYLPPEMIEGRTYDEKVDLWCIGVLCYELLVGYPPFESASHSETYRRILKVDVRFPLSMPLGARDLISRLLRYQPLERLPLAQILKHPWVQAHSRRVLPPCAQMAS

[8] = target: G protein-coupled receptor kinase 5 (Homo sapiens) (UniProt P34947); test: Inhibition of human GRK5 assessed as enzyme activity at 1 uM using casein as substrate preincubated for 20 mins followed by [gamma-33P]-ATP addition and measured after 120 mins by radiometric Hot-SpotSM Kinase assay relative to control
G protein-coupled receptor kinase 5 (Homo sapiens), sequence (P34947 whole entry, looked up): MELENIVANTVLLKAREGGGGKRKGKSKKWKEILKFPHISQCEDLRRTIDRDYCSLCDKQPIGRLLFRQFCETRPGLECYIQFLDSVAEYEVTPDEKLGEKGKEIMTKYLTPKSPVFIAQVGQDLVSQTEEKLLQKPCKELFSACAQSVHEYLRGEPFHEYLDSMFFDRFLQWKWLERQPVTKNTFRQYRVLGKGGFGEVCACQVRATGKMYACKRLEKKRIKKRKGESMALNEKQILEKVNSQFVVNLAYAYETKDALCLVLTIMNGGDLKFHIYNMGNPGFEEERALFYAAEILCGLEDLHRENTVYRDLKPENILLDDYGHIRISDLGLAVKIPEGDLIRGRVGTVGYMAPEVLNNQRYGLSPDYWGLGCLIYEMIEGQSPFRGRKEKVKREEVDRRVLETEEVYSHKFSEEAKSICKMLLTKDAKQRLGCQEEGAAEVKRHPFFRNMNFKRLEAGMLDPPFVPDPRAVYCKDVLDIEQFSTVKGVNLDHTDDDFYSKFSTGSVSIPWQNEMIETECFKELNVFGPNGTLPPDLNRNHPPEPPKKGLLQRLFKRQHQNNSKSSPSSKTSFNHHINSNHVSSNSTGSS

Work on CC[C@H](Nc1ncnc2[nH]cnc12)c1nc2cccc(F)c2c(=O)n1-c1ccccc1 yielded an Activity [1] of 95.1%, an Activity [2] of 95.9% and an Activity [3] of 98.8%. For the same molecule, the Activity [4] was 101%, the Activity [5] was 94% and the Activity [6] was 94.3%. It also gave an Activity [7] of 90.8% and an Activity [8] of 104%.

C[C@H](Nc1ncnc2nc[nH]c12)c1cc2cccc(Cl)c2c(=O)n1-c1ccccc1 gave an Activity [1] of 95.4%, an Activity [2] of 101% and an Activity [3] of 96%. For the same molecule, the Activity [4] was 95.4%, the Activity [5] was 93.6% and the Activity [6] was 95%. The Activity [7] was 89.4% and the Activity [8] was 106%.

CC(C)Oc1ccc(-c2nn([C@@H](C)c3oc4ccc(F)cc4c(=O)c3-c3cccc(F)c3)c3ncnc(N)c23)cc1F [UMBRALISIB] was tested, and the Activity [1] was 92.4%, the Activity [2] was 99.5% and the Activity [3] was 99.1%. For the same molecule, the Activity [4] was 100%, the Activity [5] was 95.5% and the Activity [6] was 91%. It also gave an Activity [7] of 94.2% and an Activity [8] of 111%.
